# Experimental data taken from paper PMC9814779, “A triple farnesoid X receptor and peroxisome proliferator-activated receptor α/δ activator reverses hepatic fibrosis in diet-induced NASH in mice” (Communications Chemistry, 2020).
# Like-named read-outs stand apart in the source and are kept apart here.
# Assays:
# Assay type in all cases: cell-based
# Parameters in all cases: Emax: dose or concentration left out as unconfirmed
# [1] = target: T1, human PPARα ligand-binding domain (Gal4 chimera) (Homo sapiens, UniProt Q07869); assay: Gal4 hybrid reporter gene assay, PPARα; details: for EC50: mean ± SEM
# T1 construct: coding for the hinge region and LBD of the canonical isoform of the respective nuclear receptor; expressed in transfected cells; host or cells: HEK293T
# T1 sequence (Q07869 239-466 limits assumed): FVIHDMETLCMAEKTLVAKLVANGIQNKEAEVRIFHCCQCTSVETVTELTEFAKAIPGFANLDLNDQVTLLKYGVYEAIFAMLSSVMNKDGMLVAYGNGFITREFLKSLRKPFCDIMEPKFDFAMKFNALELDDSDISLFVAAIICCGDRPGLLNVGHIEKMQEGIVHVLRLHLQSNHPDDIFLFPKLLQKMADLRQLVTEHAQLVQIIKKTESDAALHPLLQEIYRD
# [2] = target: T2, human PPARδ ligand-binding domain (Gal4 chimera) (Homo sapiens, UniProt Q03181); assay: Gal4 hybrid reporter gene assay, PPARδ; details: for EC50: mean ± SEM
# T2 construct: coding for the hinge region and LBD of the canonical isoform of the respective nuclear receptor; expressed in transfected cells; host or cells: HEK293T
# T2 sequence (Q03181 211-439 limits assumed): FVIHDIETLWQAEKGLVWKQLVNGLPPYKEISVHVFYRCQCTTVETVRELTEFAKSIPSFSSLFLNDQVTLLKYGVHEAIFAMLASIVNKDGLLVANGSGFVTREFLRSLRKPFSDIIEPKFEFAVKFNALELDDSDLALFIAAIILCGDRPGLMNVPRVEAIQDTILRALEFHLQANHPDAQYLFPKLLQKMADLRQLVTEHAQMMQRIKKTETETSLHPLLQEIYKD
# [3] = target: T3, human PPARγ ligand-binding domain (Gal4 chimera) (Homo sapiens, UniProt P37231); assay: Gal4 hybrid reporter gene assay, PPARγ
# T3 construct: coding for the hinge region and LBD of the canonical isoform of the respective nuclear receptor; expressed in transfected cells; host or cells: HEK293T
# T3 sequence (P37231 238-503 limits assumed): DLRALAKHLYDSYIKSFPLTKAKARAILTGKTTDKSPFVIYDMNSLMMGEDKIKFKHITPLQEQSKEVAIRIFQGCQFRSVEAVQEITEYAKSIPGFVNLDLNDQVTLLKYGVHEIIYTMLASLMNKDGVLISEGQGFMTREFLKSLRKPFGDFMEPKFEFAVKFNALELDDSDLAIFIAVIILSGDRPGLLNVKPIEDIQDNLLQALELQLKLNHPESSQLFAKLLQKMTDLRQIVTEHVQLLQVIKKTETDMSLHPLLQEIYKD
# [4] = target: T4, human FXR:retinoid X receptor (RXR) heterodimer (Homo sapiens, UniProt Q96RI1); assay: Full-length FXR reporter gene assay (BSEP response element) in HeLa cells; details: for EC50: mean ± SEM; for FXR max. rel. act.: Supplementary Table 1, relative to GW4064 at 3 µM; for Emax: read-out: max. rel. act. FXR
# T4 construct: pcDNA3-hFXR[32] and pSG5-hRXR[33] served for receptor overexpression in the full-length FXR assay; expressed in transfected cells; host or cells: HeLa
# [5] = PPAR EC50 [M], Supplementary Table 1, chromene derivatives, n ≥ 2
# [6] = Supplementary Table 1, chromene derivatives, n ≥ 2, read-out: PPAR EC50
# [7] = Supplementary Table 1, chromene derivatives, mean ± SEM, n ≥ 2, read-out: PPAR EC50
# [8] = Supplementary Table 1, chromene derivatives, n ≥ 2, read-out: FXR EC50
# [9] = EC50 [μM] PPARα, HEK293T, n = 3
# [10] = EC50 [μM] PPARδ, HEK293T, n = 3
# [11] = HeLa, n = 3, read-out: EC50 [μM] FXR
# [12] = HEK293T, n = 3, read-out: EC50 [μM] PPARδ
# [13] = HEK293T, mean ± SEM, n = 3, read-out: EC50 [μM] PPARγ
# T4 sequence (P19793 whole entry): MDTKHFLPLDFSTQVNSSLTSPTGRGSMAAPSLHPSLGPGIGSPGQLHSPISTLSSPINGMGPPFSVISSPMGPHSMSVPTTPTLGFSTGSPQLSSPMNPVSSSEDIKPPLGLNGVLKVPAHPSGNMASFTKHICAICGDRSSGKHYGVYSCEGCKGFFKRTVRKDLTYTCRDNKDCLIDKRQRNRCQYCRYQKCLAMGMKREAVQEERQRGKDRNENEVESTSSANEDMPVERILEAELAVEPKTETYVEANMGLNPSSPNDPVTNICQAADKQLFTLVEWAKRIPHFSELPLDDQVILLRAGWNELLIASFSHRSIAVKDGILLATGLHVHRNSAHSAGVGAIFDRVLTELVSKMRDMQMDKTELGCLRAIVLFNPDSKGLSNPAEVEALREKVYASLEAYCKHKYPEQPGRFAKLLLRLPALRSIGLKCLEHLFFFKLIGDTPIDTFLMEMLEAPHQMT
# T4 sequence (Q96RI1 whole entry): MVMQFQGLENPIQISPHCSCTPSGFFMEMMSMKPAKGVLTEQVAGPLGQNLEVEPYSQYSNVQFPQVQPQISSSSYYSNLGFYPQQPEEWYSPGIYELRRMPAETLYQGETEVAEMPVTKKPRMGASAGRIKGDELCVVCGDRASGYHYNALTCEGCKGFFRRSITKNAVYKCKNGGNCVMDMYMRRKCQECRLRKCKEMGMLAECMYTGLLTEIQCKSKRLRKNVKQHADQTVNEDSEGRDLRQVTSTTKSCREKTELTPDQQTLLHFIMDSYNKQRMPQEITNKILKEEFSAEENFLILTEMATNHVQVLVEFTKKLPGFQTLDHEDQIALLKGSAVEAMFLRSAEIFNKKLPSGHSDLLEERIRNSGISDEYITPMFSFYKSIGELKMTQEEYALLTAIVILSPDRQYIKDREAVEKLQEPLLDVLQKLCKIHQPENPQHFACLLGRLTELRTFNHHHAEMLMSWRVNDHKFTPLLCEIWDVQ
Compound,"EC50 [1, 5] [M]",Emax ([1]; read-out: PPAR max. rel. act.) [%],"EC50 [2, 6] [µM]",Emax ([2]; read-out: PPAR max. rel. act.) [%],"EC50 [3, 7] [µM]",Emax ([3]; read-out: PPAR max. rel. act.) [%],"EC50 [4, 8] [µM]",FXR max. rel. act. ([4]; n ≥ 2) [%],"EC50 [1, 9] [M]",Emax ([1]; read-out: max. rel. act. PPARα) [%],"EC50 [2, 10] [µM]",EC50 [3] [µM],Emax ([3]; read-out: max. rel. act. PPARγ) [%],Emax ([4]; HeLa) [%],"EC50 [4, 11] [µM]",Emax ([2]; read-out: max. rel. act. PPARδ) [%],"EC50 [2, 12] [µM]","EC50 [3, 13] [µM]",preference over PPARγ ([3]; triple FXR/PPARα/δ potency versus PPARγ)
"O=C(O)CCc1cccc(NC(=O)c2ccccc2NC(=O)C2=Cc3ccccc3OC2)c1 [S1, 3-(3-[2-{2H-Chromene-3-carboxamido}benzamido]phenyl)propanoic acid]",5.2e-06 ± 8e-07,26 ± 3,1.2 ± 0.1,26 ± 1,7.7 ± 0.6,6.6 ± 0.2,4.1 ± 0.8,14 ± 1,,,,,,,,,,,
"O=C(O)CCc1cccc(NC(=O)c2ccccc2NC(=O)C2=C(Cl)c3ccccc3OC2)c1 [S2, 3-(3-[2-{4-Chloro-2H-chromene-3-carboxamido}benzamido]phenyl)propanoic acid]",4.6e-07 ± 3e-08,31 ± 1,0.42 ± 0.01,31 ± 1,2.3 ± 0.1,9 ± 0.1,11 ± 1,16 ± 1,,,,,,,,,,,
"Cc1cccc2c1C=C(C(=O)Nc1ccccc1C(=O)Nc1cccc(CCC(=O)O)c1)CO2 [S3, 3-(3-[2-{5-Methyl-2H-chromene-3-carboxamido}benzamido]phenyl)propanoic acid]",8.3e-07 ± 1e-07,24 ± 1,0.67 ± 0.04,27 ± 1,8 ± 0.8,14 ± 1,4.3 ± 0.3,11 ± 1,,,,,,,,,,,
"Cc1ccc2c(c1)C=C(C(=O)Nc1ccccc1C(=O)Nc1cccc(CCC(=O)O)c1)CO2 [S4, 3-(3-[2-{6-Methyl-2H-chromene-3-carboxamido}benzamido]phenyl)propanoic acid]",8.4e-07 ± 1e-07,29 ± 1,1.5 ± 0.2,16 ± 1,5 ± 1.6,36 ± 8,5.4 ± 0.1,12 ± 1,,,,,,,,,,,
"O=C(O)CCc1cccc(NC(=O)c2ccccc2NC(=O)C2=Cc3cc(F)ccc3OC2)c1 [S5, 3-(3-[2-{6-Fluoro-2H-chromene-3-carboxamido}benzamido]phenyl)propanoic acid]",1.8e-06 ± 6e-07,20 ± 1,2.6 ± 0.8,20 ± 3,4.6 ± 0.8,17 ± 1,> 10,,,,,,,,,,,,
O=C(O)CCc1cccc(NC(=O)c2ccccc2NC(=O)C2=Cc3cc(Cl)ccc3OC2)c1 [S6],3.1e-06 ± 4e-07,27 ± 2,1.6 ± 0.5,14 ± 2,3 ± 0.5,5.1 ± 0.3,> 10,,,,,,,,,,,,
Cc1ccc2c(c1)OCC(C(=O)Nc1ccccc1C(=O)Nc1cccc(CCC(=O)O)c1)=C2 [S7],3.4e-06 ± 1e-07,38 ± 1,1.1 ± 0.1,30 ± 1,5 ± 1.6,7.9 ± 1.4,> 10,,,,,,,,,,,,
Cc1cccc2c1OCC(C(=O)Nc1ccccc1C(=O)Nc1cccc(CCC(=O)O)c1)=C2 [S8],3.5e-06 ± 2e-07,29 ± 1,1.2 ± 0.4,18 ± 2,3.1 ± 0.2,9.3 ± 0.5,> 10,,,,,,,,,,,,
O=C(O)CCc1cccc(NC(=O)c2ccccc2NC(=O)C2=Cc3cccc(Cl)c3OC2)c1 [S9],2.3e-06 ± 1e-07,35 ± 1,0.91 ± 0.36,16 ± 2,2.4 ± 0.2,7.6 ± 0.2,> 10,,,,,,,,,,,,
COc1cccc2c1OCC(C(=O)Nc1ccccc1C(=O)Nc1cccc(CCC(=O)O)c1)=C2 [S10],6.6e-06 ± 1.8e-06,26 ± 5,5.2 ± 0.2,30 ± 1,23 ± 2,8.6 ± 0.6,2.8 ± 0.3,14 ± 1,,,,,,,,,,,
O=C(O)CCc1cccc(NC(=O)c2ccccc2NC(=O)C2=Cc3cccc(O)c3OC2)c1 [S11],> 3e-05,,> 30,,7.9 ± 1.2,6.3 ± 0.5,> 10,,,,,,,,,,,,
O=C(O)Cc1ccccc1NC(=O)c1ccccc1NC(=O)c1ccc2ccccc2c1 [compound 7],,,,,,,,,1.4e-06 ± 1e-07,33,> 10,1.7 ± 0.1,17 ± 10,31,9.2 ± 0.2,,,,
O=C(O)CCc1cccc(NC(=O)c2ccccc2NC(=O)c2ccc3ccccc3c2)c1 [compound 9],,,,,,,,,1e-06 ± 2e-07,31,0.65 ± 0.03,2.6 ± 0.3,19,20,2.6 ± 0.3,28,,,
O=C(O)CCc1ccc(NC(=O)c2ccccc2NC(=O)c2ccc3ccccc3c2)cc1 [compound 12],,,,,,,,,> 3e-05,,,,,21 ± 10,2.1 ± 0.1,,> 30,> 30,
O=C(O)COc1cccc(NC(=O)c2ccccc2NC(=O)c2ccc3ccccc3c2)c1 [compound 13],,,,,,,,,1e-05 ± 1e-06,35,10 ± 1,19 ± 1,11,19,5 ± 1,43,,,
O=C(O)CNc1cccc(NC(=O)c2ccccc2NC(=O)c2ccc3ccccc3c2)c1 [compound 14],,,,,,,,,> 3e-05,,,,7.7,31,1.3 ± 0.1,83,3.5 ± 0.2,5.7 ± 0.1,
CC(C)(Nc1cccc(NC(=O)c2ccccc2NC(=O)c2ccc3ccccc3c2)c1)C(=O)O [compound 15],,,,,,,,,1.7e-06 ± 1e-07,71,3.6 ± 0.2,5.1 ± 0.9,18,10,0.45 ± 0.01,42,,,
CC(C)(C)c1ccc(C(=O)Nc2cccc(CCC(=O)O)c2)c(NC(=O)c2ccc3ccccc3c2)c1 [compound 24],,,,,,,,,3.1e-07 ± 8e-08,63,,1.5 ± 0.1,20,,,,,,approximately fivefold preference over PPARγ
O=C(O)CCc1cccc(NC(=O)c2ccccc2NC(=O)c2ccc(-c3ccoc3)cc2)c1 [compound 32],,,,,,,,,1.6e-06 ± 3e-07,31,,4.2 ± 0.9,38,20,0.23 ± 0.01,,,,
